# “Also recorded” adds a separate entry of the source.
# Experiments:
# [1] = tested on: OCT2 and MATE1; test: Buflomedil inhibition of OCT2 and MATE1 with cisplatin or oxaliplatin as substrate (FIG. 15B); format: cell-based, human
# [2] = Buflomedil plasma concentration in Balb/C mice after IV and IP administration; format: in vivo; conditions: male, mouse
# Method: Male mice of 7-8 weeks of age were allowed to acclimate for 6 days. […] Blood was collected at 0.083, 0.5, and 1 hour into Heparin tubes. The plasma was obtained through centrifugation of the blood at 4000 rpm at 4° C.
# For plasma sample analysis, the samples were thawed and mixed well before 20 µL aliquots were processed using protein precipitation by internal standard (Verapamil) containing organic solution, methanol: acetonitrile 5:95 (v/v). After vigorous vortexing and refrigerated centrifugation at 4000 rpm, 50 μL of the extract from each sample was reconstituted with 70 μL of 0.1% formic acid in water. […] The calibration curve was extracted in the same way as the plasma samples. The final extracts were analyzed by LC-MS/MS using positive electrospray ionizations under the multiple-reaction-monitoring (MRM) mode for the detection of buflomedil. The standard curve fitted by linear regression was used to quantify the analyte in the matrix using Analyst 1.5.2 software (AB Sciex) Results
# [3] = tested on: Balb/c mice exposed to chronic treatment with Oxaliplatin; test: Morphometry and histopathology of DRG neurons in chronic oxaliplatin neuropathy model; format: in vivo, mouse; conditions: for area of DRG neuron cell bodies and nucleoli (morphometry): OXA 3.5 mg/kg iv twice a week for 4 weeks (8 cycles) ± BFMD 30 mg/kg ip + 15 mg/kg iv
# Description: The investigator was blind to the nerve and DRG conditions for these analyses. Three animals from each group were sacrificed four days after the last oxaliplatin dose. The left sciatic nerves and the L4-L5 DRGs were harvested and processed following previously reported protocols, resin embedded and sectioned for light and electron microscope analysis. For the light microscopy analysis, 1 μm semithin sections were stained with toluidine blue and examined using a Nikon Eclipse E200 light microscope (Nikon, Firenze, Italy). For the electron microscopy analysis, ultrathin sections (80 nm) counterstained with uranyl acetate and lead citrate, were examined with a Philips CM 10 transmission electron microscope (Philips, Eindhoven, Netherlands).
# The investigator was blind to the experimental conditions of the tissue for these experiments. One micron thick semithin sections stained with toluidine blue were used for morphometric examination of the DRGs from control (n=3) and oxaliplatin-treated mice (n=3). (Renn et al. Molecular Pain 2011, 7:29). Only the cells where the nucleolus was included in the section plane of 50 μm-spaced out sections were considered to avoid the overlapping of the same cell bodies and they were analyzed with computer-assisted image analysis (ImageJ, NIH) to measure the soma and nucleolus size of at least 300 DRG neurons per mouse.
# [4] = tested on: Balb/c mice exposed to chronic treatment with Oxaliplatin; test: Sciatic nerve histology, g-ratio, in chronic oxaliplatin neuropathy model; format: in vivo, mouse; conditions: OXA 3.5 mg/kg iv, 8 cycles ± BFMD 30 mg/kg ip + 15 mg/kg iv
# Method: After completion of behavioral and electrophysiological analysis, animals were killed and sciatic nerves were dissected, fixed, stained for myelin and cut as semithin sections. Light microscopy was performed to capture an image of the entire nerve which was then subjected to semi-automatic software-based nerve morphometry in order to assess axon diameter and myelin thickness 20.
# To assess changes in nerve cell myelination, we calculated the g ratio of nerve fibers (g-ratio denominates the numerical ratio between the diameter of the axon and the outer diameter of the myelinated fiber; hypomyelination in sciatic nerves, which is associated with platinum neurotoxicity (Boehmerle, W., et al. Sci. Rep. 4, 6370), would thus cause an increase of the g-ratio).
# [5] = tested on: Balb/c mice exposed to chronic treatment with Oxaliplatin; test: Dynamic Plantar Aesthesiometer Test in chronic oxaliplatin neuropathy model; format: in vivo, mouse; conditions: for mechanical allodynia, Dynamic Aesthesiometer Test at the end of treatment: OXA 3.5 mg/kg iv, 8 cycles ± BFMD 30 mg/kg ip + 15 mg/kg iv
# Method: The Dynamic Plantar Aesthesiometer Test was used to determine the alterations in mechanical pain perception and their changes due to pharmacological treatment. Mice were accustomed to the device 3 days before performing the tests after a 1 hour acclimatization period followed by testing. The mechanical nociceptive threshold was assessed using a Dynamic Aesthesiometer Test (model 37450, Ugo Basile Biological Instruments, Comerio. Italy), which generated a linearly increasing mechanical force. At each time point, after the acclimatization period, a servo-controlled mechanical stimulus (a pointed metallic filament, 0.5-mm diameter) was applied to the plantar surface of the hind paw, which exerted a progressively increasing punctuate pressure, reaching up to 15 g within 15 seconds. The pressure evoking a clear voluntary hind-paw withdrawal response was recorded automatically and taken as representing the mechanical nociceptive threshold index. The mechanical threshold was always assessed alternatively on each side every 2 minutes on 3 occasions to yield a mean value. The results represent the maximal pressure (expressed in grams) tolerated by the animals. There was an upper limit cutoff of 30 seconds, after which the mechanical stimulus was automatically terminated.
# [6] = Mortality, clinical observations and body weight in the chronic model; format: in vivo, mouse; conditions: BFMD 30 mg/kg ip + 15 mg/kg iv ± OXA 3.5 mg/kg iv, twice a week for 4 weeks; n=12/group
# [7] = target: T1, OCT2 over OCT3, MATE1 and MATE2K (Homo sapiens, UniProt O15244); test: Inhibition of OCT2-mediated oxaliplatin transport in 100% human serum or HBSS containing 4% BSA (IC50,app); conditions: human, MDCK-II cells transfected with human transporters, selectivity between OCT2 and OCT3, MATE1 and MATE2K, oxaliplatin transport
# T1 sequence (O15244 1-555): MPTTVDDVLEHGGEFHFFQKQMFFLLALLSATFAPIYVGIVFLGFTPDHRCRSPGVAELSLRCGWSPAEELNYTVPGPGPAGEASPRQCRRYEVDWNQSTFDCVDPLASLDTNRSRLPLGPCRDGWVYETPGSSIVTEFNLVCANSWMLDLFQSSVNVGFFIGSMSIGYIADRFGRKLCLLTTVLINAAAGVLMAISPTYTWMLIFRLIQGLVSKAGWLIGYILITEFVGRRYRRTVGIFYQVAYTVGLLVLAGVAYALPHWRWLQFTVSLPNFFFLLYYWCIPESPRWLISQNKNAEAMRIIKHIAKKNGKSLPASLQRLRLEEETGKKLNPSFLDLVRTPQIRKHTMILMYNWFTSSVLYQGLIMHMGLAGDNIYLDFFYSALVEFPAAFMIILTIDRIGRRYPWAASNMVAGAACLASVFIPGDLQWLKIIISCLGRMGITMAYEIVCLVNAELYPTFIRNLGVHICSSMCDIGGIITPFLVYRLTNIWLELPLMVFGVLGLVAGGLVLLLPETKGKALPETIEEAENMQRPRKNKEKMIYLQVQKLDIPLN
# Description: Fully confluent MDCK cell monolayers were transfected with either cDNA plasmids encoding the human transporter to be tested or a GFP control. […] The cells were then washed with ice-cold PBS and lysed with 50:50 acetonitrile:H2O. Intracellular content of the substrate was quantified by LC/MS/MS or a MicroBeta radiometric plate reader.
Structure (SMILES),difference in IC50s between oxaliplatin and cisplatin as substrate (OCT2 or MATE1) [1],"selectivity toward OCT2 over MATE1, cisplatin or oxaliplatin as substrate [1]","concentration at 10 min ([2]; Balb/C, other: IV/IP (intravenous group and intraperitoneal groups), 10 mg/kg IV, 20 or 40 mg/kg IP, each group)","bioavailability ([2]; ip, Balb/C mice, read-out: estimated bioavailability of IP administration)",area of DRG neuron cell bodies and nucleoli (morphometry) ([3]; listed as BFMD),area of DRG neuron cell bodies and nucleoli (morphometry) ([3]; listed as buflomedil),"DRG histopathology (light and electron microscopy) ([3]; OXA 3.5 mg/kg iv, 8 cycles ± BFMD 30 mg/kg ip + 15 mg/kg iv)",sciatic nerve G-ratio (hypomyelination) ([4]; listed as BFMD),sciatic nerve G-ratio (hypomyelination) ([4]; listed as buflomedil),"mechanical allodynia, Dynamic Aesthesiometer Test at the end of treatment ([5]; listed as BFMD)","mechanical allodynia, Dynamic Aesthesiometer Test at the end of treatment ([5]; listed as buflomedil)","mechanical allodynia (mechanical pain threshold) ([5]; buflomedil 80 mg/kg po 2 hours before OXA, 8 cycles, n=3/group)",mortality [6],selectivity ratio [7]
"COc1cc(OC)c(C(=O)CCCN2CCCC2)c(OC)c1 [Buflomedil, 4-pyrrolidin-1-yl-1-(2,4,6-trimethoxyphenyl)butan-1-one]",nearly identical IC50s; also recorded: no/minimal difference in its IC50s,great selectivity toward OCT2,> 2000 ng/mL,40 to 60%,nearly completely prevented OXA's induced DRG neuronal injury; also recorded: no difference from the CTRL group,effective on preventing dorsal root ganglion (DRG) nerve cell injury,look clearly similar to the control,reduction in G-ratio of the OXA+BFMD group vs OXA group,effective on reducing sciatic nerve damage,only the groups treated with OXA alone showed the development of mechanical allodynia,effective on preventing mechanical allodynia,effective on reducing mechanical (FIG. 30A) and cold (FIG. 30B) allodynia; also recorded: showed protective effects against OXAIPN,Two animals (BFMD and OXA+BFMD groups) died after the first administration; also recorded: one animal (OXA+BFMD group) died after the last administration,–
Clc1ccc(COC(Cn2ccnc2)c2ccc(Cl)cc2Cl)c(Cl)c1 (centres unmarked) [Miconazole],–,–,–,–,–,–,–,–,–,–,–,–,–,> 10

# From patent publication US11197862B2, “Methods of preventing toxicity of platinum drugs” (XOMICS BIOPHARMA, INC., priority 2015, dated 2021)
